From patent US10544140B2, “Pharmaceutical composition containing, as active ingredient, 7-azaindolin-2-one derivative or pharmaceutically acceptable salt thereof” (LG CHEM, LTD., priority 2015, dated 2020) come the findings set out here.

For series [1], the system named is MDA-MB-231 (breast cancer). The series can be described thus: Cytotoxicity test by MTT assay, MDA-MB-231. The settings on record: for IC50: Homo sapiens, MBA-MB-231, 48 h. It counts as cell-based, human. On the procedure:
(§1) A cytotoxicity test was measured by MTT assay. Each cell line was cultured in a 96-well plate at a density of 1×10^4 cells/well. After 24 hours, the culture medium containing 1% FBS (fetal bovine serum) was treated and reacted with compounds or solutions of compounds for 48 hours. MTT (3-(4,5-dimethylthiazol-2-yl)-2,5-diphenyltetrazolium bromide) solution (5 mg/mL) was added to each well and reacted for 4 hours in an incubator. […] After reacting in an incubator for 30 minutes, the formation of formazan was quantified using a microplate reader at an absorbance of 540 nm. […] The human cancer cell lines used herein are MCF-7 (breast cancer), MDA-MB-231 (breast cancer), HT-29 (colon cancer), DU145 (prostate cancer), U937 (myeloid leukemia), A549 (lung cancer), PANC-1 (pancreatic cancer) and MIA PaCa-2 (pancreatic cancer).

A further series has as its system HT-29 (colon cancer). The series can be described thus: Cytotoxicity test by MTT assay, HT-29. It counts as cell-based, human. The settings on record: for IC50: Homo sapiens, HT-29, 48 h. On the procedure:
as §1

In another series the test system is DU145 (prostate cancer). As to the kind of experiment: Cytotoxicity test by MTT assay, DU145. It counts as cell-based, human. As to conditions: DU-145; for IC50: Homo sapiens, DU145, 48 h. On the procedure:
as §1

For a further series, the system named is U937 (myeloid leukemia). The series can be described thus: Cytotoxicity test by MTT assay, U937. The settings on record: for IC50: Homo sapiens, U-937, U937, 48 h. It counts as cell-based, human. On the procedure:
as §1

The test system of a further series is A549 (lung cancer). The series can be described thus: Cytotoxicity test by MTT assay, A549. The class given is cell-based, human. As to conditions: for IC50: Homo sapiens, A549, 48 h. On the procedure: as §1
The nature of series [2]: Cytotoxicity test by MTT assay, HEK293 normal cell line. It counts as cell-based. As to conditions: human, HEK293 cells (normal cell line). On the procedure: (§2) A cytotoxicity test was measured by MTT assay. Each cell line was cultured in a 96-well plate at a density of 1×10^4 cells/well. After 24 hours, the culture medium containing 1% FBS (fetal bovine serum) was treated and reacted with compounds or solutions of compounds for 48 hours. MTT (3-(4,5-dimethylthiazol-2-yl)-2,5-diphenyltetrazolium bromide) solution (5 mg/mL) was added to each well and reacted for 4 hours in an incubator. […] After reacting in an incubator for 30 minutes, the formation of formazan was quantified using a microplate reader at an absorbance of 540 nm.

Series [3] deals with MCF-7 (human breast cancer cell line). As to the kind of experiment: Cytotoxicity test by MTT assay, MCF-7. It counts as cell-based. As to conditions: Homo sapiens, MCF7; for cytotoxicity at 30 µM: MCF-7, 30 μM, 48 h, read-out: Cell viability (% inhibition); for IC50: MCF-7, 48 h. On the procedure:
(§3) A cytotoxicity test was measured by MTT assay. Each cell line was cultured in a 96-well plate at a density of 1×10^4 cells/well. […] MTT (3-(4,5-dimethylthiazol-2-yl)-2,5-diphenyltetrazolium bromide) solution (5 mg/mL) was added to each well and reacted for 4 hours in an incubator. […] After reacting in an incubator for 30 minutes, the formation of formazan was quantified using a microplate reader at an absorbance of 540 nm. […] At this time, sunitinib was used as a control group. […] The human cancer cell lines used herein are MCF-7 (breast cancer), MDA-MB-231 (breast cancer), HT-29 (colon cancer), DU145 (prostate cancer), U937 (myeloid leukemia), A549 (lung cancer), PANC-1 (pancreatic cancer) and MIA PaCa-2 (pancreatic cancer).

Series [4] concerns PANC-1 (human pancreatic cancer cell line). As to the kind of experiment: Cytotoxicity test by MTT assay, PANC-1. The class given is cell-based. As to conditions: for cytotoxicity at 30 µM: PANC-1, 30 μM, 48 h, read-out: Cell viability (% inhibition). On the procedure: as §3
Series [5] is described as follows: Cytotoxicity test by MTT assay, CHO-K1 normal cell line. The class given is cell-based. As to conditions: Chinese hamster, CHO-K1 cells (normal cell line). On the procedure:
as §2

Some results are limits rather than exact numbers.

In the case of `Cc1nc2c(c(C)c1O)/C(=C/c1ccc3ccccc3n1)C(=O)N2` [Compound I-24, (Z)-5-Hydroxy-4,6-dimethyl-3-(quinolin-2-ylmethylene)-1H-pyrrolo[2,3-b]pyridin-2(3H)-one], the “cytotoxicity compared with the reference drug sunitinib” value (in [1]; in the series on HT-29 (colon cancer) (HT-29); in the series with DU145 (prostate cancer); in the series on U937 (myeloid leukemia) (U937); with A549 (lung cancer) (A-549)) was “greater than or equal to that of the reference drug sunitinib” each time. Further, the IC50 in series [1] came to 2.81 µM; in the series with HT-29 (colon cancer), 4.57 µM; with DU145 (prostate cancer) it was 1.07 µM; in the series on U937 (myeloid leukemia), 6.67 µM; in the series on A549 (lung cancer), 4.2 µM. The compound further gave an IC50 at 48 h in series [2] of 46.8 µM.

For the compound `Cc1cc(C)c(/C=C2\C(=O)Nc3nc(C)c(O)c(C)c32)[nH]1` [Compound I-36, (Z)-3-((3,5-Dimethyl-1H-pyrrol-2-yl)methylene)-5-hydroxy-4,6-dimethyl-1H-pyrrolo[2,3-b]pyridin-2(3H)-one], the cytotoxicity at 30 µM stood at 47.3% in series [3] and 44.7% in series [4] (Homo sapiens). Further, the IC50 in [3] was found to be 31.6 µM; in series [1] it was 10.2 µM; with HT-29 (colon cancer), 16.6 µM; with U937 (myeloid leukemia) it was 33.9 µM; with A549 (lung cancer) it was 13.9 µM. The IC50 at 48 h in series [2] is greater than 90 µM; in [5], 50.1 µM.

As for `Cc1nc2c(c(C)c1O)/C(=C/c1[nH]c(C)c(C(=O)O)c1C)C(=O)N2` [Compound I-37, (Z)-5-((5-Hydroxy-4,6-dimethyl-2-oxo-1H-pyrrolo[2,3-b]pyridin-3(2H)-ylidene)methyl)-2,4-dimethyl-1H-pyrrole-3-carboxylic acid], the cytotoxicity at 30 µM is 60.4% in series [3] and 55.8% in [4] (Homo sapiens). For the same compound, the IC50 came to 14.8 µM in [3]; 19.5 µM in series [1]; 26.2 µM with HT-29 (colon cancer); 14.8 µM in the series with U937 (myeloid leukemia); 19.9 µM with A549 (lung cancer). Besides, the IC50 at 48 h is 38 µM in series [2] and 33.1 µM in series [5].

Take `CCOC(=O)c1c(C)[nH]c(/C=C2\C(=O)Nc3nc(C)c(O)c(C)c32)c1C` [Compound I-38, (Z)-Ethyl-5-((5-hydroxy-4,6-dimethyl-2-oxo-1H-pyrrolo[2,3-b]pyridin-3(2H)-ylidene)methyl)-2,4-dimethyl-1H-pyrrole-3-carboxylate]: the cytotoxicity at 30 µM was 41.7% in series [3] and 35.7% in series [4] (Homo sapiens). Moreover, the half-inhibitory concentration (IC50) amounted to 39.8 µM in series [3]; 24.5 µM in [1]; 22.9 µM in the series with HT-29 (colon cancer); 12.9 µM in the series on U937 (myeloid leukemia); 18.2 µM in the series with A549 (lung cancer). Further, the IC50 at 48 h in [2] was greater than 90 µM; in series [5], 24 µM.

As to `Cc1nc2c(c(C)c1O)/C(=C/c1[nH]c(C)c(C(=O)N3CCOCC3)c1C)C(=O)N2` [Compound I-46, (Z)-3-((3,5-Dimethyl-4-(morpholine-4-carbonyl)-1H-pyrrol-2-yl)methylene)-5-hydroxy-4,6-dimethyl-1H-pyrrolo[2,3-b]pyridin-2(3H)-one], the cytotoxicity at 30 µM was found to be 71.2% in series [3] and 71.1% in series [4] (Homo sapiens). Besides, the IC50 in series [3] stood at 12.6 µM; in series [4] (Homo sapiens, PANC-1, 48 h), 11.5 µM; in series [1], 14.5 µM; with HT-29 (colon cancer), 57.5 µM; in the series with DU145 (prostate cancer), 22.9 µM; in the series with A549 (lung cancer) it was 30.1 µM. In addition, the “cytotoxicity compared with the reference drug sunitinib” value in [4] (PANC-1) was “greater than or equal to that of the reference drug sunitinib”. Moreover, the IC50 at 48 h in [2] and in series [5] was greater than 90 µM each time.

As to `COc1cccc2c1C(=O)c1c(O)c3c(c(O)c1C2=O)C[C@@](O)(C(=O)CO)C[C@@H]3O[C@H]1C[C@H](N)[C@H](O)[C@H](C)O1` [Doxorubicin, reference compound], the IC50 at 48 h in series [2] was found to be 0.32 µM; in series [5] it was 12.1 µM.
